Data as given in publication PMC6017193, “Structure-Based Discovery of a Series of 5H-Pyrrolo[2,3-b]pyrazine FGFR Kinase Inhibitors” (Molecules : A Journal of Synthetic Chemistry and Natural …, 2018).

Target: T1, FGFR1 (Homo sapiens, UniProt P11362)
T1 construct: purchased Millipore
Assay: ELISA kinase assay, FGFR1 enzymatic activity
Assay type: biochemical
Method: The effects of compounds on the activities of indicated (FGFR1 and c-Met) kinases were determined using enzyme-linked immunosorbent assays (ELISAs) with purified recombinant proteins. Briefly, 20 μg/mL poly (Glu, Tyr)4:1 (Sigma, St. Louis, MO, USA) was precoated in 96-well plates as a substrate. A 50-μL aliquot of 10 μmol/L ATP solution diluted in kinase reaction buffer (50 mmol/L HEPES (pH 7.4), 50 mmol/L MgCl2, 0.5 mmol/L MnCl2, 0.2 mmol/L Na3VO4, and 1 mmol/L DTT) was added to each well; 1 μL of various concentrations of compounds diluted in 1% DMSO (v/v) (Sigma) were then added to each reaction well. DMSO (1%, v/v) was used as the negative control. The kinase reaction was initiated by the addition of purified tyrosine kinase proteins FGFR1 (Millipore, Darmstadt, Germany) or c-Met (Millipore) diluted in 49 μL of kinase reaction buffer. After incubation for 60 min at 37 °C, the plate was washed three times with phosphate-buffered saline (PBS) containing 0.1% Tween 20 (T-PBS). Anti-phosphotyrosine (PY99) antibody (Sanra Cruz, Dallas, TX, USA) (100 μL; 1:500, diluted in 5 mg/mL bovine serum albumin (BSA) T-PBS) was then added. After a 30-min incubation at 37 °C, the plate was washed three times, and 100 μL of horseradish peroxidase-conjugated goat anti-mouse IgG (Calbiochem, Shanghai, China) (1:2000, diluted in 5 mg/mL BSA T-PBS) was added. The plate was then incubated at 37 °C for 30 min, and washed three times. A 100-μL aliquot of a solution containing 0.03% H2O2 and 2 mg/mL o-phenylenediamine in 0.1 mol/L citrate buffer (pH 5.5) was added. The reaction was terminated by the addition of 50 μL of 2 mol/L H2SO4 as the color changed, and the plate was analyzed using a multi-well spectrophotometer (SpectraMAX 190, Molecular Devices, Palo Alto, CA, USA) at 490 nm. The inhibition rate (%) was calculated using the following equation:IR = [1 − (A490/A490control)] × 100%.(1) where IR, A490, and A490control are the inhibition rate, the absorbance value of the tested compound at 490 nm, and the absorbance value of the negative control compound at 490 nm, respectively. The IC50 values were calculated from the inhibition curves in two separate experiments.

[1] = 0.01 μM (10 nM), mean of two separate experiments
[2] = 0.1 μM, mean of two separate experiments
[3] = 1 μM, mean of two separate experiments

T1 sequence (P11362 22-822): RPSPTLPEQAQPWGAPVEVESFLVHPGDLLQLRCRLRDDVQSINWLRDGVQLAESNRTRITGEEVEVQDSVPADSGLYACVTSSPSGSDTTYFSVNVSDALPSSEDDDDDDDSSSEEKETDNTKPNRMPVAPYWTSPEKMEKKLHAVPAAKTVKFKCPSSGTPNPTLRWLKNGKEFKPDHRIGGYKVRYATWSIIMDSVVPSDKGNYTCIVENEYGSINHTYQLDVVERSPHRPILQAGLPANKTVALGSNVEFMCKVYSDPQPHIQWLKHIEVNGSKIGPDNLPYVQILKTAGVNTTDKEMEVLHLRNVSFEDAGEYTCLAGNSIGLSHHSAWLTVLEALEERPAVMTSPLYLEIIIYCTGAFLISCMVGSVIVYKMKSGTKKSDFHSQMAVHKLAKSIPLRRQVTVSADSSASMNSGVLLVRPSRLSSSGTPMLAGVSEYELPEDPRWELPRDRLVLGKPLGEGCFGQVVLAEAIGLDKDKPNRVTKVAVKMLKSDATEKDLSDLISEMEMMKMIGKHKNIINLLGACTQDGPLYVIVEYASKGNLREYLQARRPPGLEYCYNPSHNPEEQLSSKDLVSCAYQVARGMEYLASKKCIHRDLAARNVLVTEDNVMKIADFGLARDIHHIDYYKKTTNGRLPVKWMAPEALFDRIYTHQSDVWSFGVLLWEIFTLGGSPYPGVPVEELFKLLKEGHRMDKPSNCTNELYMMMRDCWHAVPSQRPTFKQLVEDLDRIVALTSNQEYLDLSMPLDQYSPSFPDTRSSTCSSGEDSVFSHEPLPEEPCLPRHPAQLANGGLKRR

Compound	inhibition at 0.01 µM [1]	inhibition at 0.1 µM [2]	inhibition at 1 µM [3]	FGFR1 activity (in words) (FGFR1 enzymatic activity, Table 3)	inhibition at 10 µM (10 μM, mean of two separate experiments)	FGFR1 Inhibition (%) [1]	FGFR1 Inhibition (%) [2]	FGFR1 Inhibition (%) [3]
CCC(=O)n1cc(-c2cnc3ccn(S(=O)(=O)c4cn(CCF)cn4)c3n2)cn1 [Compound 16, 1-(4-(5-((1-(2-Fluoroethyl)-1H-imidazol-4-yl)sulfonyl)-5H-pyrrolo[2,3-b]pyrazin-3-yl)-1H-pyrazol-1-yl)propan-1-one]	15.1%	55.8%	94.6%	–	–	–	–	–
O=S(=O)(c1cn(CCF)cn1)n1ccc2ncc(-c3cnn(S(=O)(=O)C4CC4)c3)nc21 [Compound 24, 3-(1-(Cyclopropylsulfonyl)-1H-pyrazol-4-yl)-5-((1-(2-fluoroethyl)-1H-imidazol-4-yl)sulfonyl)-5H-pyrrolo[2,3-b]pyrazine]	16.6%	13.5%	29.5%	–	–	–	–	–
CNC(=O)Cn1cnc(S(=O)(=O)n2ccc3ncc(-c4cn[nH]c4)nc32)c1 [Compound 33, 2-(4-((3-(1H-Pyrazol-4-yl)-5H-pyrrolo[2,3-b]pyrazin-5-yl)sulfonyl)-1H-imidazol-1-yl)-N-methylacetamide]	19.9%	43.8%	82.4%	–	–	–	–	–
CCOC(=O)Cn1cc(-c2cnc3ccn(S(=O)(=O)c4cn(CCF)cn4)c3n2)cn1 [Compound 20, Ethyl 2-(4-(5-((1-(2-fluoroethyl)-1H-imidazol-4-yl)sulfonyl)-5H-pyrrolo[2,3-b]pyrazin-3-yl)-1H-pyrazol-1-yl)acetate]	7.2%	5.4%	49.6%	–	–	–	–	–
O=S(=O)(c1cn(C2CCCC2)cn1)n1ccc2ncc(-c3cn[nH]c3)nc21 [Compound 32, 5-((1-Cyclopentyl-1H-imidazol-4-yl)sulfonyl)-3-(1H-pyrazol-4-yl)-5H-pyrrolo[2,3-b]pyrazine]	4.9%	20.1%	71.7%	–	–	–	–	–
O=S(=O)(c1cn(CCF)cn1)n1ccc2ncc(-c3cnn(C4CC4)c3)nc21 [Compound 14, 3-(1-Cyclopropyl-1H-pyrazol-4-yl)-5-((1-(2-fluoroethyl)-1H-imidazol-4-yl)sulfonyl)-5H-pyrrolo[2,3-b]pyrazine]	4.7%	2.2%	2.8%	lost the FGFR1 activity	–	–	–	–
CC(C)n1cnc(S(=O)(=O)n2ccc3ncc(-c4cn[nH]c4)nc32)c1 [Compound 30]	40.4%	77.1%	94.5%	–	–	–	–	–

The remaining lines, values ahead:

inhibition at 0.01 µM [1]	inhibition at 0.1 µM [2]	inhibition at 1 µM [3]	FGFR1 activity (in words) (FGFR1 enzymatic activity, Table 3)	inhibition at 10 µM (10 μM, mean of two separate experiments)	FGFR1 Inhibition (%) [1]	FGFR1 Inhibition (%) [2]	FGFR1 Inhibition (%) [3]	Compound
13.9%	19.9%	37.1%	–	–	–	–	–	CC(C)Cn1cnc(S(=O)(=O)n2ccc3ncc(-c4cn[nH]c4)nc32)c1 [Compound 31, 5-((1-Isobutyl-1H-imidazol-4-yl)sulfonyl)-3-(1H-pyrazol-4-yl)-5H-pyrrolo[2,3-b]pyrazine]
7.3%	12%	40.7%	–	–	–	–	–	COC(=O)Cn1cc(-c2cnc3ccn(S(=O)(=O)c4cn(CCF)cn4)c3n2)cn1 [Compound 19, Methyl 2-(4-(5-((1-(2-fluoroethyl)-1H-imidazol-4-yl)sulfonyl)-5H-pyrrolo[2,3-b]pyrazin-3-yl)-1H-pyrazol-1-yl)acetate]
12.5%	14.9%	65.6%	–	–	–	–	–	CNC(=O)Cn1cc(-c2cnc3ccn(S(=O)(=O)c4cn(CCF)cn4)c3n2)cn1 [Compound 21, 2-(4-(5-((1-(2-Fluoroethyl)-1H-imidazol-4-yl)sulfonyl)-5H-pyrrolo[2,3-b]pyrazin-3-yl)-1H-pyrazol-1-yl)-N-methylacetamide]
–	–	–	–	> 50%	–	–	–	Cn1cc(-c2cnc3cnn(S(=O)(=O)c4c(Cl)nc5sccn45)c3c2)cn1 [Compound 5, 6-chloro-5-((6-(1-methyl-1H-pyrazol-4-yl)-1H-pyrazolo[4,3-b]pyridin-1-yl)sulfonyl)imidazo[2,1-b]thiazole]
–	–	–	–	–	−3.3%	15.6%	56.8%	Methyl 2-(4-(5-((1-(2-fluoroethyl)-1H-imidazol-4-yl)sulfonyl)-5H-pyrrolo[2,3-b]pyrazin-3-yl)-1H-pyrazol-1-yl)acetate [Compound 17]
